Where two headings read alike, the source gives them in different places.
Experiments:
Scopulariopsis brumptii = test: Fungistatic or fungicidal properties of reagents (TSB flasks, then MEA plates); type: cell-based; settings: for Growth on MEA plates (Day 14): 1 mL of flask plated on day 28 onto MEA plate, 14 days; for Growth on MEA plates (Day 14) / Growth in TSB Flasks (Day 28): room temperature; for Growth in TSB Flasks (Day 28): TSB flasks inoculated with fungal stock, 28 days; for fungistatic / fungicidal assessment: flask and plate tests taken together; on Growth in TSB Flasks (Day 28): key: −: no growth was observed; +: growth was observed; on Growth on MEA plates (Day 14): key: −: no growth was observed; +: growth was observed
Protocol: An experiment was conducted to assess the fungistatic or fungicidal properties of the reagents used in the collection and sporulation medium described in Example 3. Initial sterility tests were performed using trypticase soy broth (TSB). A fungal stock was created by suspending fungal scrapings from a Scopulariopsis brumptii stock culture into 25 mL PBS and filtering this material through a coarse Swinney filter (˜100 μm). Two hundred […] of this fungal stock was inoculated into three TSB flasks for treatments (Trt) 2-11.
Treatments evaluated various of the components of the collection/sporulation/sanitization medium described in Example 3, either alone or in combination. Sodium propionate was also tested in addition to propionic acid. Treatments were evaluated at room temperature for 28 days; then, on day 28 of incubation, one mL of each replicate flask for all treatments was plated onto a malt extract agar (MEA) plate with chloramphenicol (50 μg/mL) and penicillin-G (100 U/mL) and incubated at room temperature for 14 days.

[1] = tested on: extraneous viable bacteria and fungi; test: 9CFR 113.27 purity test after sanitization of oocysts; settings: sanitized E. maxima oocysts
Protocol: (§1) An experiment was performed to investigate the utility of the sporulation medium described in Example 3 as a sanitization reagent. E. maxima oocysts were produced in broilers and purified using a density flotation technique. Oocysts were sporulated for 72 h using 10% citric acid, 0.25% propionic acid, 0.75% hydrogen peroxide, and 1 mL/L Antifoam A. After sporulation, the oocysts were centrifuged and resuspended in sterile-filtered sporulation medium (10% citric acid, 0.25% propionic acid, 0.75% hydrogen peroxide, 1 mL/L Antifoam A) and incubated overnight at room temperature with stirring. After sanitization, buffer exchange was accomplished via diafiltration using 200 mM potassium phosphate, pH 7, followed by PBS without preservatives. The bulk sample was stored in glass bottles approximately one-third full at 4° C. Subsamples of the final product were sent to a commercial testing laboratory for purity tests according to U.S. Department of Agriculture (USDA) guidelines.
(§2) Two experimental batches of E. maxima oocysts were prepared (Run A and Run B). Each batch was purified using sieving and flotation procedures. Each batch was then split and two methods of sanitization were tested (sodium hypochlorite and hydrogen peroxide with citric acid and propionic acid). Samples from each test were subjected to several purity tests including 9CFR tests and two PCR methods for virus detection.

mycoplasma = test: 9CFR 113.28 purity test after sanitization of oocysts; settings: sanitized E. maxima oocysts
Protocol: as §1, §2

salmonella = test: 9CFR 113.30 purity test after sanitization of oocysts; settings: sanitized E. maxima oocysts
Protocol: as §1, §2

avian lymphoid leukosis = settings: sanitized E. maxima oocysts
Protocol: E. maxima oocysts were produced in broilers and purified using a density flotation technique. […] After sanitization, buffer exchange was accomplished via diafiltration using 200 mM potassium phosphate, pH 7, followed by PBS without preservatives. The bulk sample was stored in glass bottles approximately one-third full at 4° C. Subsamples of the final product were sent to a commercial testing laboratory for purity tests according to U.S. Department of Agriculture (USDA) guidelines.

hemagglutinating virus = test: 9CFR 113.34 purity test after sanitization of oocysts; settings: sanitized E. maxima oocysts
Protocol: as §1, §2

[2] = tested on: Extraneous agents in master seed; test: 9CFR 113.55 purity test after sanitization of oocysts; settings: sanitized E. maxima oocysts
Protocol: as §2

[3] = tested on: Chicken Infectious Anemia Virus; test: PCR virus detection after sanitization of oocysts; settings: sanitized E. maxima oocysts
Protocol: as §2

[4] = tested on: Reticuloendothelial Virus; test: PCR virus detection after sanitization of oocysts; settings: sanitized E. maxima oocysts
Protocol: as §2

O=C(O)CC(O)(CC(=O)O)C(=O)O [Trt 5, citric acid]
Growth on MEA plates (Day 14) (Scopulariopsis brumptii): −
Growth in TSB Flasks (Day 28) (Scopulariopsis brumptii): −

OO [Trt 3, hydrogen peroxide]
Growth on MEA plates (Day 14) (Scopulariopsis brumptii): −
Growth in TSB Flasks (Day 28) (Scopulariopsis brumptii): −

CCC(=O)O [Trt 4, propionic acid]
Growth on MEA plates (Day 14) (Scopulariopsis brumptii): +
Growth in TSB Flasks (Day 28) (Scopulariopsis brumptii): −
fungistatic / fungicidal assessment (Scopulariopsis brumptii): fungistatic

CCC(=O)[O-].[Na+] [Trt 10, sodium propionate]
Growth on MEA plates (Day 14) (Scopulariopsis brumptii): +
Growth in TSB Flasks (Day 28) (Scopulariopsis brumptii): +

CCC(=O)[O-].[Na+] [sodium propionate]
fungistatic / fungicidal assessment (Scopulariopsis brumptii): did not inhibit fungal growth

[Na+].[O-]Cl [Hypochlorite, sodium hypochlorite]
9CFR 113.27 Detection of extraneous viable bacteria and fungi in live vaccine ([1]; Example 6, Run A): Negative
9CFR 113.27 Detection of extraneous viable bacteria and fungi in live vaccine ([1]; Example 6, Run B): Negative
9CFR 113.28 Detection of mycoplasma (mycoplasma; Example 6, Run A): Negative
9CFR 113.28 Detection of mycoplasma (mycoplasma; Example 6, Run B): Negative
9CFR 113.30 Detection of salmonella (salmonella; Example 6, Run A): Negative
9CFR 113.30 Detection of salmonella (salmonella; Example 6, Run B): Negative
9CFR 113.31 Detection of avian lymphoid leucosis (avian lymphoid leukosis; Example 6, Run A): Negative
9CFR 113.31 Detection of avian lymphoid leucosis (avian lymphoid leukosis; Example 6, Run B): Negative
9CFR 113.34 Detection of hemagglutinating virus (hemagglutinating virus; Example 6, Run A): Negative
9CFR 113.34 Detection of hemagglutinating virus (hemagglutinating virus; Example 6, Run B): Negative
9CFR 113.55 Extraneous agents in master seed ([2]; Example 6, Run A): Negative
9CFR 113.55 Extraneous agents in master seed ([2]; Example 6, Run B): Negative
Chicken Infectious Anemia Virus by PCR ([3]; Example 6, Run A): Negative
Chicken Infectious Anemia Virus by PCR ([3]; Example 6, Run B): Negative
Reticuloendothelial Virus by PCR ([4]; Example 6, Run A): Negative
Reticuloendothelial Virus by PCR ([4]; Example 6, Run B): Negative

Source: patent publication US9107865B2, “Methods for producing oocysts” (Zoetis Services LLC, priority 2001, dated 2015)
